Values of other authors in US20080044504A1, “Pomegranate Juice, Pomegranate Juice Powder and Process for Producing the Powder” (Marukin Bio, Inc., priority 2004, published 2008).
Like-named read-outs stand apart in the source and are kept apart here.

Test system: estrogen receptor

Structure (SMILES): O=c1c(-c2ccc(O)cc2)coc2cc(O)ccc12 [daidzein]
- binding to the estrogen receptor (binding rate of DES defined as 100%): 0.04%

Structure (SMILES): O=c1c(-c2ccc(O)cc2)coc2cc(O)cc(O)c12 [genistein]
- binding to the estrogen receptor: 1.7%
